Columns and labels:
[1] = tested on: E-Cadherin and ZEB-1 in PC3 and Du145 cells; assay: Western blotting of E-Cadherin and ZEB-1; type: cell-based, human; conditions: bulk Du145 and PC3 cells; 30 or 60 nM, 48 h
Protocol: (§1) FIGS. 3A-3J show partial suppression of epithelial to mesenchymal transition by miR-141 and CD44 as a direct target of miR-141. FIGS. 3A-3B show qPCR analysis of epithelial to mesenchymal transition markers in bulk (FIG. 3A) or CD44^+ (FIG. 3B) Du145 cells transfected with the miR-141 oligos (30 nM; 48 h). Results were presented as the relative expression levels over the cells transfected with the NC oligos. […] GAPDH was used as control and the relative protein levels after normalizing to GAPDH and NC controls were indicated below each lane. […] Shown below is the actual sequence in the region with the mutated miR-141 binding sequence indicated in grey (below). […] Shown are representative images. […] Du145 cells were co-transfected with NC or miR-141 oligos (30 nM) together with pBabe empty vector or pBabe-CD44 vector. After 48 h, cells were harvested for invasion assays. Bars, mean±SD. *, P<0.05; **, P<0.01.

CD44 = CD44 mRNA and protein levels in prostate cancer cells; type: cell-based, human; conditions: bulk Du145 and PC3 cells or CD44+ Du145 cells
Protocol: as §1
Total RNA was extracted using microRNA isolation kit (Life Technologies) according to the manufacturer's instructions. microRNA qPCRs were performed using TaqMan microRNA assays (Life Technologies). qPCR data for microRNAs were normalized to RNU48 whereas qPCR data for mRNAs were normalized to GAPDH.

Human ARPC5 3'-UTR = assay: 3'-UTR luciferase reporter assay; type: cell-based; conditions: Du145 cells; 30 nM miR-141 vs NC oligos
Protocol: (§2) Du145 cells transfected with NC or miR-141 oligos at the two doses and time intervals indicated were used in Western blotting. Indicated below are relative expression levels (normalized to respective GAPDH and compared to NC) of each protein determined by densitometric scanning of the individual bands. […] Bars, mean±SD. *P<0.05; **P<0.01. […] Du145 cells were co-transfected with NC or miR-141 oligos (30 nM) in combination with pcDNA3.1 (control) vector or pcDNA-RAC1 or pcDNA-CDC42 expression vector. After 48 h, cells were harvested for invasion assays. […] Du145 cells were infected with Lenti-141 or control lentivirus (MOI 10, 48 h) and then harvested to measure the Rho GTPase activities. Bars, mean±SD. *P<0.05. […] Du145 cells were transfected with the antisense oligos to NC or miR-141 (anti-141; 30 nM) and then used in invasion assays (FIG. 5E). In FIG. 5F and FIG. 5G Du145 cells were transfected with 10 nM of scramble siRNA control (siCon) or siRNAs targeting RAC1 (FIG. 5F) or CDC42 (FIG. 5G), either alone or in combination of anti-141 (30 nM). 48 h later, cells were harvested for invasion assays. Bars, mean±SD. *P<0.05; **P<0.01.
(§3) The human CD44 3′-UTR was amplified from Du145 genomic DNA using primers 5′-[…]-3′ (SEQ ID NO: 2) and 5′-[…]-3′ (SEQ ID NO: 3), as previously described (13). For site-specific mutagenesis, the region in the CD44 3′-UTR (SEQ ID NO: 4, shown with uracils) complementary to the seed sequence of miR-141 (SEQ ID NO: 1) were mutated (TAGTGTT to GGCGCGG; see FIG. 3D). The human EZH2 3′-UTR was amplified from Du145 genomic DNA using primers 5′-GAGCTC-CATCTGCTACCTCCTCCCC-3′ (SEQ ID NO: 6) and 5′-[…]-3′ (SEQ ID NO: 7). For site-specific mutagenesis, the region complementary to the seed sequence of miR-141 was mutated (AAAGTGTT to TATCACAA; see FIG. 6A). The PCR fragments were cloned into pGEM-T vector (Promega, Madison, Wis.) and sequence confirmed. Cells were plated in 24-well plates and co-transfected, using Lipofectamine 2000, with 1 μg firefly luciferase reporter plasmid and 5 ng Renilla plasmid (phRL-CMV) into which the 3′-UTR fragments were cloned. The luciferase activities were detected using Duo-luciferase reporter assay system (Promega). Human RAC1, CDC42, CDC42EP3, and ARPC5 3′-UTR luciferase reporter constructs were obtained from SwitchGear Genomics (Menlo Park, Calif.) and luciferase activities were measured per the manufacturer's instructions using LightSwitch luciferase assay kit.

Human CDC42 3'-UTR = assay: 3'-UTR luciferase reporter assay; type: cell-based; conditions: Du145 cells; 30 nM miR-141 vs NC oligos
Protocol: as §2, §3

Human CDC42EP3 3'-UTR = assay: 3'-UTR luciferase reporter assay; type: cell-based; conditions: Du145 cells; 30 nM miR-141 vs NC oligos
Protocol: as §2, §3

Human RAC1 3'-UTR = assay: 3'-UTR luciferase reporter assay; type: cell-based; conditions: Du145 cells; 30 nM miR-141 vs NC oligos
Protocol: as §2, §3

CDC42 = assay: Rho family GTPase activity assay (G-LISA); type: cell-based, human; conditions: Du145 cells, Lenti-141 MOI 10, 48 h
Protocol: as §2
(§4) The activity of Rho family of small GTPases including RhoA, RAC1 and CDC42 were detected using G-LISA small G-protein activation assays per the manufacturer's instructions (Cytoskeleton, Inc., Denver, Colo.; catalog# BK135).

RAC1 = assay: Rho family GTPase activity assay (G-LISA); type: cell-based, human; conditions: Du145 cells, Lenti-141 MOI 10, 48 h
Protocol: as §2, §4

RhoA = assay: Rho family GTPase activity assay (G-LISA); type: cell-based, human; conditions: Du145 cells, Lenti-141 MOI 10, 48 h
Protocol: as §2, §4

miR-141: miR-141 mirVana mimics (Life Technologies); microRNA-141 oligonucleotide may have SEQ ID NO: 1; in some experiments over-expressed by lentiviral vectors (UAACACUGUCUGGUAAAGAUGG; listed as RNA, further chemistry not given here) [miR-141 mirVana mimics (Life Technologies); in some experiments over-expressed by lentiviral vectors]
E-cadherin (CDH1) protein level [1]: increased | ZEB1 protein level [1]: reduced | CD44 mRNA level (CD44): significantly reduced | CD44 protein level (CD44): significantly reduced | luciferase activity of ARPC5 3'-UTR construct (Human ARPC5 3'-UTR): inhibited | luciferase activity of CDC42 3'-UTR construct (Human CDC42 3'-UTR): inhibited | luciferase activity of CDC42EP3 3'-UTR construct (Human CDC42EP3 3'-UTR): inhibited | luciferase activity of RAC1 3'-UTR construct (Human RAC1 3'-UTR): inhibited | GTPase activity of CDC42 (CDC42): suppressed | GTPase activity of RAC1 (RAC1): suppressed | GTPase activity of RhoA (RhoA): not

Source: patent publication US10202604B2, “Methods of using microRNA-141” (Stemirna Therapeutics Co., Ltd., priority 2016, dated 2019)
